Where two headings read alike, the source gives them in different places.
Key:
[1] = test system: mouse leukemia L-1210; test: Antitumor activity on mouse leukemia L-1210 (T/C percentage of survival); assay type: in vivo; conditions: i.p. once a day for 5 days, female CDF1 mouse
Description: (2) Test for antitumor activity on mouse leukemia L-1210.
Into 6-weeks-old female CDF1 mouse were inoculated 1×10^5 L-1210 cells, and each drug was administered intraperitoneally once a day for 5 consecutive days, starting 24 hours after the inoculation. Physiological saline was administered to a control group. From the average survival periods of the drug-treated group and the control group (abbreviated as T and C, respectively), T/C percentage (T/C×100) was determined.

[2] = test system: mouse leukemia L-1210 cells; test: Inhibitory activity on multiplication of mouse leukemia L-1210 initially cultured cells; assay type: cell-based; conditions: 48 hours, 37° C., RPMI 1640 with 10% bovine fetal serum
Description: (1) Test for inhibitory activity on multiplication of mouse leukemia L-1210 initially cultured cells.
Mouse leukemia L-1210 cells collected from the abdominal cavities of DBA/2 mouse were incubated in a 5% CO2 incubator at 37° C. for 48 hours by using a RPMI 1640 medium containing 10% of bovine fetal serum and 5 μM of 2-mercaptoethanol.

[3] = background statement; cited from earlier work
[4] = Solubility in water

Compound | Antitumor effect shown by T/C percentage ([1]; 1 mg/kg) | Antitumor effect shown by T/C percentage ([1]; 2 mg/kg) | Antitumor effect shown by T/C percentage ([1]; 4 mg/kg) | Antitumor effect shown by T/C percentage ([1]; 8 mg/kg) | Solubility in water | further results
O=C(CCl)[O][Pt]1([O]C(=O)CCl)[NH]CC2(CCCCC2)[NH]1 [compound 15, cis-bis(Chloroacetato)-1-amino-1-aminomethylcyclohexane platinum] | 175% | 200% | 299% | 130% | > 1500 µg/mL | Antitumor effect shown by T/C percentage ([1]; 0.5 mg/kg): 135%
cis-Oxalato-1-amino-1-aminomethylcyclohexane platinum [compound 13] | 188% | 296% | 230% | 218% | > 2500 µg/mL | IC50 [2]: 0.021 µg/mL; Antitumor effect shown by T/C percentage ([1]; 0.5 mg/kg): 146%
NCC1(N)CCCC1.[Cl][Pt][Cl] [compound 18, cis-Dichloro-1-amino-1-aminomethylcyclopentane platinum] | 226% | 344% | 141% | 92% |  | IC50 [2]: 0.02 µg/mL; Antitumor effect shown by T/C percentage ([1]; 0.5 mg/kg): 179%
NCC1(N)CCCCC1.[OH][Pt]([OH])([Cl])[Cl] [compound 11, cis-Dichloro-trans-dihydroxy-1-amino-1-aminomethylcyclohexane platinum] |  |  | 162% | 237% | > 2000 µg/mL | Antitumor effect shown by T/C percentage ([1]; 16 mg/kg): 275%; Antitumor effect shown by T/C percentage ([1]; 32 mg/kg): 108%; Antitumor effect shown by T/C percentage ([1]; 64 mg/kg): 67%
CCC(N)(CC)CN.[Cl][Pt]([Cl])([Cl])[Cl] [compound 8, cis-Tetrachloro-1,2-diamino-2-ethylbutane platinum] |  |  |  |  | 5000 µg/mL | 
cis-bis(Pyruvato)-1-amino-1-aminomethylcyclohexane platinum [compound 16] |  |  |  |  | > 2000 µg/mL | 
NCC1(N)CCCC1.[OH][Pt]([OH])([Cl])[Cl] [compound 19, cis-Dichloro-trans-dihydroxy-1-amino-1-aminomethylcyclopentane platinum] |  |  | 138% | 174% |  | IC50 [2]: 0.60 µg/mL; Antitumor effect shown by T/C percentage ([1]; 16 mg/kg): 323%; Antitumor effect shown by T/C percentage ([1]; 32 mg/kg): 113%; Antitumor effect shown by T/C percentage ([1]; 64 mg/kg): 80%
NCC1(N)CCCCC1.[Cl][Pt]([Cl])([Cl])[Cl] [compound 12, cis-Tetrachloro-1-amino-1-aminomethylcyclohexane platinum] | 200% | 259% | 224% | 95% | > 15000 µg/mL | Antitumor effect shown by T/C percentage ([1]; 0.5 mg/kg): 137%
N.N.[Cl][Pt][Cl] [cis-Platin, cis-dichlorodiammineplatinum] |  |  |  |  |  | carcinostatic effect [3]: very excellent
cis-Dichloro-1,2-diamino-2-ethylbutane platinum [compound 5] | 181% | 291% | 199% | 82% | > 2500 µg/mL | Antitumor effect shown by T/C percentage ([1]; 0.5 mg/kg): 135%
NCC1(N)CCCC1.O=C([O-])C(O)C(=O)[O-].[Pt+2] [compound 23, cis-2-Hydroxymalonato-1-amino-1-aminomethylcyclopentane platinum] |  |  |  |  | 5000 µg/mL | 
CCC(C)(N)CN.[Cl][Pt][Cl] (stereo not drawn) [compound 4, cis-Dichloro-1,2-diamino-2-methylbutane platinum] |  |  |  |  | 3500 µg/mL | 
CCC(N)(CC)CN.O=C([O-])C(O)C(=O)[O-].[Pt+2] [compound 10, cis-2-Hydroxymalonato-1,2-diamino-2-ethylbutane platinum] |  |  |  |  | 16000 µg/mL | 
NCC1(N)CCCC1.O=C([O-])C(=O)[O-].[Pt+2] [compound 21, cis-Oxalato-1-amino-1-aminomethylcyclopentane platinum] | 141% | 161% | 189% | 166% |  | Antitumor effect shown by T/C percentage ([1]; 0.5 mg/kg): 124%
[Cl][Pt]1([Cl])([Cl])([Cl])[NH]CC2(CCCC2)[NH]1 [compound 20, cis-Tetrachloro-1-amino-1-aminomethyl cyclopentane platinum] |  |  |  |  | 18000 µg/mL | 
CCC(N)(CC)CN.[OH][Pt]([OH])([Cl])[Cl] [compound 7, cis-Dichloro-trans-dihydroxy-1,2-diamino-2-ethylbutane platinum] |  |  |  |  | 13000 µg/mL | 
CCC1C(=O)[O][Pt]2([NH]CC(CC)(CC)[NH]2)[O]C1=O (stereo not drawn) [compound 9, cis-2-Ethylmalonato-1,2-diamino-2-ethylbutane platinum] |  |  |  |  | 25000 µg/mL | 
CCC(C(=O)[O-])C(=O)[O-].NCC1(N)CCCCC1.[Pt+2] [compound 17, cis-2-Ethylmalonato-1-amino-1-aminomethyl cyclohexane platinum] |  |  |  |  |  | Solubility in water [4]: 8000 µg/mL
CC1(C)C[NH][Pt]([Cl])([Cl])[NH]1 [compound 1, cis-Dichloro-1,2-diamino-2-methylpropane platinum] | 133% | 171% | 206% | 124% | 5000 µg/mL | Antitumor effect shown by T/C percentage ([1]; 16 mg/kg): 51%
CC(C)(N)CN.[Cl][Pt]([Cl])([Cl])[Cl] [compound 3, cis-Tetrachloro-1,2-diamino-2-methylpropane platinum] | 127% | 139% | 162% | 154% | > 12000 µg/mL | Antitumor effect shown by T/C percentage ([1]; 16 mg/kg): 60%
CCC(N)(CC)CN.O=C([O-])C(=O)[O-].[Pt+2] [compound 6, cis-Oxalato-1,2-diamino-2-ethylbutane platinum] | 130% | 152% | 226% | 206% |  | Antitumor effect shown by T/C percentage ([1]; 16 mg/kg): 211%
